Common to all, as to assay: Phosphoprotein kinetic profiles in CD34+, CD117+ cells of AML bone marrow samples
Holding throughout (assay type): cell-based, human

One assay relates to pS6. The conditions noted are these: for pS6 Amp (peak amplitude of fold stimulation) / pS6 RI (response interval): CD34^+, CD117^+ cells; for Frequency, pS6: frequency of positive-stained cells; for Positives/Negatives, pS6: ratio of positive- to negative-stained cells. How it is done:
(§1) To assess the signal transduction response after growth factor simulation, 100 to 200 μL of processed samples including about 2×10^6 WBC/100 μL were added to tubes and incubated at 37° C. for 30 minutes. For inhibition experiments, cells were incubated with 100 μM U0126, 1 μg/mL rapamycin, or both for at least 20 minutes prior to cytokine addition and in all cases for 30 min prior to formaldehyde addition. […] After stimulation the cells were immediately fixed by the addition of formaldehyde to a final concentration of 4% v/v and incubated for 10 minutes at room temperature. Following fixation, red blood cells were lysed by the addition of TRITON-X/PBS solution (0.1% v/v final concentration Triton X-100) supplemented with a 1 x phosphatase inhibitor cocktail (PIC; final concentrations: 0.2 mM sodium orthovanadate, 2 mM sodium pyrophosphate decahydrate, 2 mM [3-glycerophosphate, and 10 mM sodium fluoride) and incubation at 37° C. for 20 minutes. The incubated solution was chilled by the addition of ice-cold Wash Buffer (final concentration 1×PBS and either 4% bovine serum albumin (BSA) or 4% heat-inactivated fetal bovine serum (FBS), supplemented with 1×PIC), and the samples were centrifuged at 300 g for 6 minutes at 4° C.). If the lysis was incomplete, samples were retreated with 0.1% Triton X-100 at 37° C. for 10 to 20 minutes. After removal of the supernatant, cells were washed twice in ice-cold Wash Buffer supplemented with 1×PIC and permeabilized by the addition of pre-chilled 80% methanol while simultaneously vortexing the tube and incubated on ice for 10 minutes. Methanol was removed by centrifugation, the pellet was washed with ice-cold 1×PBS, and non-specific binding was blocked by the addition of ice-cold Wash Buffer supplemented with 1×PIC and incubation at 4° C. for a minimum of 30 minutes.
(§2) To stain cells with fluorescent conjugated monoclonal antibodies, the incubated solution was centrifuged to remove the supernatant and the pellet was incubated for 60 minutes at 4° C. with an antibody staining solution including 0.25 μg to 0.50 μg of pS6-Pacific Blue, pERK-ALEXA 488, pSTAT5-ALEXA 647, CD34-PE, CD45-PerCP, and CD117-PC7. Samples were washed three times with ice-cold Wash Buffer supplemented with 1×PIC, resuspended in 0.5 mL ice-cold Wash Buffer supplemented with 1×PIC including 0.5 μg/mL DAPI, and analyzed by flow cytometryusing a BD LSR II Flow Cytometer, equipped with a High Throughput Sampler (HTS).
(§3) First, doublets, aggregates, and debris were excluded by gating on single cell events in the SSC-Area versus SSC-Height histogram. Then, in events passing through this gate, debris near the origin of the FSC-Area versus SSC-Area plot (gray in FIG. 4A) was excluded by drawing a gate around an area encompassing, primarily, lymphocytes, monocytes, and granulocytes (LMG, black in FIG. 4A). Next, in cells passing through the LMG gate, the blast region (circle in FIG. 4B) was identified in the CD45 versus SSC-Area histogram (FIG. 4B). From this blast population, CD34+, CD117+ cells were identified in the CD34 versus CD117 plot (boxed area in FIG. 4C). Finally, these cells were further analyzed for cytokine-mediated increases in phosphorylation by constructing gates in the single parameter histograms (for positively and negatively stained events, i.e., for the phosphorylated and non-phosphorylated forms, respectively, of each protein) for pS6 (FIGS. 4D and 4G), pERK (FIGS. 4E and 4H), and pSTAT5 (FIGS. 4F and 4I). […] The dotted lines in each of these histograms represent unstimulated cells at t=0 min. FCS files were processed with WinList 6.0 3D (Verity Software House).

In a further assay the test system is pERK. The conditions noted are these: for pERK Amp (peak amplitude of fold stimulation) / pERK RI (response interval): CD34^+, CD117^+ cells; for Frequency, pERK: frequency of positive-stained cells; for Positives/Negatives, pERK: ratio of positive- to negative-stained cells; for pERK response, fold greater than in healthy donor samples: SCF: AML1 and AML2, FL: AML1. How it is done: as §1, §2, §3

The subject of another assay is pSTAT5. Here is the method: as §1, §2, §3

Results on three molecules are retold here after patent US20130210034A1, “COMPLEX PHOSPHOPROTEIN ACTIVATION PROFILES” (BECKMAN COULTER, INC., priority 2005, published 2013).

As for Stem Cell Factor [SCF], in the assay with pS6 (AML1 sample (Example 6)), the “pS6 Amp (peak amplitude of fold stimulation)” value was determined as 1100 and the “pS6 RI (response interval)” value came out at 30 min. In the assay on pS6 (AML2 sample (Example 6)), the “pS6 Amp (peak amplitude of fold stimulation)” value amounted to 620 and the “pS6 RI (response interval)” value is reported as 30 min. Besides, in the assay with pS6 (SCF-stimulated), the “Fold Stimulation, AML to NBM ratio (pS6)AML1/(pS6)D6-9” value is listed as 110; the “Fold Stimulation, AML to NBM ratio (pS6)AML2/(pS6)D6-9” value came to 62; the “Frequency, AML to NBM ratio (pS6)AML1/(pS6)D6-9” value is on record as 3.7; the “Frequency, AML to NBM ratio (pS6)AML2/(pS6)D6-9” value was 3.7. In the assay on pS6 (SCF-stimulated), the “MFI, AML to NBM ratio (pS6)AML1/(pS6)D6-9” value was determined as 3.0; the “MFI, AML to NBM ratio (pS6)AML2/(pS6)D6-9” value came to 2.3; the “Positives/Negatives, AML to NBM ratio (pS6)AML1/(pS6)D6-9” value turned out to be 80; the “Positives/Negatives, AML to NBM ratio (pS6)AML2/(pS6)D6-9” value was found to be 52. Further, in the assay with pS6 (SCF-stimulated, AML1), the “Fold Stimulation, pS6” value was found to be 1100; the “MFI, pS6” value was determined as 3100; the “Frequency, pS6” value worked out at 96; the “Positives/Negatives, pS6” value is listed as 35. Also, in the assay on pS6 (SCF-stimulated, AML2), the “Fold Stimulation, pS6” value turned out to be 620; the “MFI, pS6” value was 2400; the “Frequency, pS6” value is reported as 97; the “Positives/Negatives, pS6” value stood at 23. In addition, the “frequency of positively stained cells at its maximum, pS6” value in the assay with pS6 (SCF-stimulated, AML samples) is recorded as around 97%. For the same molecule, in the assay on pERK (AML1 sample (Example 6)), the “pERK Amp (peak amplitude of fold stimulation)” value came to 1600 and the “pERK RI (response interval)” value is given as 30 min. In the assay on pERK (AML2 sample (Example 6)), the “pERK Amp (peak amplitude of fold stimulation)” value turned out to be 1300 and the “pERK RI (response interval)” value amounted to 20 min. Besides, in the assay on pERK (SCF-stimulated), the “Fold Stimulation, AML to NBM ratio (pERK)AML1/(pERK)D6-9” value is listed as 30; the “Fold Stimulation, AML to NBM ratio (pERK)AML2/(pERK)D6-9” value is reported as 25; the “Frequency, AML to NBM ratio (pERK)AML1/(pERK)D6-9” value is given as 1.1; the “Frequency, AML to NBM ratio (pERK)AML2/(pERK)D6-9” value stood at 1.1. Also, in the assay on pERK (SCF-stimulated), the “MFI, AML to NBM ratio (pERK)AML1/(pERK)D6-9” value is listed as 0.41; the “MFI, AML to NBM ratio (pERK)AML2/(pERK)D6-9” value was 0.35; the “Positives/Negatives, AML to NBM ratio (pERK)AML1/(pERK)D6-9” value is recorded as 2.0; the “Positives/Negatives, AML to NBM ratio (pERK)AML2/(pERK)D6-9” value is listed as 1.5. Also, in the assay on pERK (SCF-stimulated, AML1), the “Fold Stimulation, pERK” value was found to be 1600; the “MFI, pERK” value is 1500; the “Frequency, pERK” value was 88; the “Positives/Negatives, pERK” value came out at 10. In the assay with pERK (SCF-stimulated, AML2), the “Fold Stimulation, pERK” value is recorded as 1300; the “MFI, pERK” value stood at 1300; the “Frequency, pERK” value turned out to be 90; the “Positives/Negatives, pERK” value was 7.4. Moreover, in the assay with pERK (SCF-stimulated, AML samples), the “frequency of positively stained cells at its maximum, pERK” value is given as “approximately 90%”. In addition, the “pERK response, fold greater than in healthy donor samples” value with pERK was “approximately 10 fold”. Further, the “pSTAT5 Amp (peak amplitude of fold stimulation)” value in the assay with pSTAT5 (AML1 sample (Example 6)) is listed as 32. In the assay with pSTAT5 (AML2 sample (Example 6)), the “pSTAT5 Amp (peak amplitude of fold stimulation)” value worked out at 2 and the “pSTAT5 RI (response interval)” value was determined as 6 min.
As for “Granulocyte-Macrophage Colony-Stimulating Factor [GM-CSF]”, in the assay on pS6 (AML1 sample (Example 6)), the “pS6 Amp (peak amplitude of fold stimulation)” value is 1 and the “pS6 RI (response interval)” value is reported as 20 min. In the assay with pERK (AML1 sample (Example 6)), the “pERK Amp (peak amplitude of fold stimulation)” value turned out to be 6 and the “pERK RI (response interval)” value is 10 min. Besides, in the assay on pSTAT5 (AML1 sample (Example 6)), the “pSTAT5 Amp (peak amplitude of fold stimulation)” value came out at 110 and the “pSTAT5 RI (response interval)” value is given as above 60 min.

B1: FMS-Like Tyrosine Kinase 3 (FLT-3) ligand (protein, UniProt P49771 27-235, looked up)
Fms-related tyrosine kinase 3 …: TQDCSFQHSPISSDFAVKIRELSDYLLQDYPVTVASNLQDEELCGGLWRLVLAQRWMERLKTVAGSKMQGLLERVNTEIHFVTKCAFQPPPSCLRFVQTNISRLLQETSEQLVALKPWITRQNFSRCLELQCQPDSSTLPPPWSPRPLEATAPTAPQPPLLLLLLLPVGLLLLAAAWCLHWQRTRRRTPRPGEQVPPVPSPQDLLLVEH
B1: in the assay with pS6 (AML1 sample (Example 6)), the “pS6 Amp (peak amplitude of fold stimulation)” value turned out to be 140 and the “pS6 RI (response interval)” value turned out to be 30 min. In addition, in the assay on pERK (AML1 sample (Example 6)), the “pERK Amp (peak amplitude of fold stimulation)” value is reported as 460 and the “pERK RI (response interval)” value came out at 30 min. Further, in the assay on pERK, the “pERK response, fold greater than in healthy donor samples” value is listed as “approximately 10 fold”. For the same molecule, in the assay with pSTAT5 (AML1 sample (Example 6)), the “pSTAT5 Amp (peak amplitude of fold stimulation)” value came to 2 and the “pSTAT5 RI (response interval)” value is reported as 2 min.
